Counter-ions that a name gives are not always drawn. Marks after values point to notes of the source that are not given here.
How the values were obtained:
[1] = cited from earlier work
clinical [2] = assay: clinical
Method: (§1) On Day 10, the victim and perpetrator IMPs were administered simultaneously.
(§2) On the evening before each dose, participants were provided with a light snack and were required to fast from all food and drink (except water) for a minimum of 10 hours until the following morning. All study interventions were administered in the fed state, following completion of a standard breakfast (with dosing planned to occur 30 minutes after the start of the breakfast).
(§3) The PK parameters underwent a natural logarithmic transformation and were analyzed using a mixed effect modelling technique. Adjusted geometric mean ratios and 90% confidence intervals (CIs) of the ratios were obtained for each comparison. The ratio was defined as test/reference. In addition, the intraparticipant variability were also presented. […] No formal interim analyses were performed for this study.

clinical [3] = conditions: human, in vivo
Method: as §1, §2, §3

ROCK2 = ROCK2 (Homo sapiens, UniProt O75116); assay: ROCK2 inhibition; format: biochemical
Chain of ROCK2 (O75116 whole entry): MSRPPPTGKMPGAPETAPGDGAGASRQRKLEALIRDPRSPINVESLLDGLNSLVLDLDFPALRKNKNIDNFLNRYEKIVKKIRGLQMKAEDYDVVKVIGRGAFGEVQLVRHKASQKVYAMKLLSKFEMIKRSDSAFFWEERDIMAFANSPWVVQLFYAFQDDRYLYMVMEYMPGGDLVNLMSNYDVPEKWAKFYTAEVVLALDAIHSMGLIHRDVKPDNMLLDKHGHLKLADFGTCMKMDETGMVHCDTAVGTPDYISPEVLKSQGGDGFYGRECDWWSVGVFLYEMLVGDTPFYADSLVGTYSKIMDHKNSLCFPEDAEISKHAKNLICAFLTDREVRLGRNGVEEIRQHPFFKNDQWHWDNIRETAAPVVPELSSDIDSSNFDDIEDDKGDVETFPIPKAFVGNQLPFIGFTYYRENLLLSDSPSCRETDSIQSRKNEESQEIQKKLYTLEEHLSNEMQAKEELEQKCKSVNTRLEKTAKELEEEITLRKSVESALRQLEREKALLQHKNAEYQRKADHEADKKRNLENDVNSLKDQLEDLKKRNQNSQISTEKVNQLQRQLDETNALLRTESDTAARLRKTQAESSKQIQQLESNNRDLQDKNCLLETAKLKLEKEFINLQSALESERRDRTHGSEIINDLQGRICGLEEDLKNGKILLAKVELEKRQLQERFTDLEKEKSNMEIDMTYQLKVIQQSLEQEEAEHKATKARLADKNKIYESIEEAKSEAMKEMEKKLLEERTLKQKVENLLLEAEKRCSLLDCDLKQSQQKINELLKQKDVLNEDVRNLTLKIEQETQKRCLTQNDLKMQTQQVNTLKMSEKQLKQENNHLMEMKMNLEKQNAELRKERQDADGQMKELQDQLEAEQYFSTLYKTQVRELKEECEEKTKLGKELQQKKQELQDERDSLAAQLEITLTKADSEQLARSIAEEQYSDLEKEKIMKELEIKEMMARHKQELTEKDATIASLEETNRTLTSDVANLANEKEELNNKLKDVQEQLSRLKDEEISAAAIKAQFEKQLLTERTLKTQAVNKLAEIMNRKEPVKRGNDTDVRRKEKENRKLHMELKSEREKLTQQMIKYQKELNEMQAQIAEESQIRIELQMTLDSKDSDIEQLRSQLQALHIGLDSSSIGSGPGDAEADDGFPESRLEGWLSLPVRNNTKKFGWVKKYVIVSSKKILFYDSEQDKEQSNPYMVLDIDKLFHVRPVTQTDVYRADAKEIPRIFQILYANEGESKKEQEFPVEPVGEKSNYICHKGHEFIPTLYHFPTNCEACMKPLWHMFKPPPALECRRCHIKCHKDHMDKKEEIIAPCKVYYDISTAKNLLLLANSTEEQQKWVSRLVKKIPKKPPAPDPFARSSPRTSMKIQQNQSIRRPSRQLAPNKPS

[4] = metabolite exposure in clinical trials of the belumosudil development program; format: in vivo, human
[5] = Example 3 Part 2 (Regimen B) dabigatran etexilate + belumosudil plasma PK; format: in vivo, human
Method: The ratio was defined as test/reference. In addition, the intraparticipant variability were also presented. […] No formal interim analyses were performed for this study.

[6] = Raltegravir + belumosudil (Day 7), belumosudil 200 mg QD
[7] = Raltegravir alone (Day 1), 400 mg single dose
[8] = Regimen A, raltegravir 400 mg single dose + belumosudil 200 mg QD (Day 7)
[9] = Regimen A, raltegravir 400 mg single dose alone (Day 1)
[10] = raltegravir + belumosudil vs raltegravir alone
[11] = Dabigatran etexilate + belumosudil (Day 9), belumosudil 200 mg QD
[12] = Dabigatran etexilate alone (Day 1), 75 mg single dose
[13] = Regimen B, dabigatran etexilate 75 mg single dose + belumosudil 200 mg QD (Day 9)
[14] = dabigatran etexilate + belumosudil vs alone
[15] = dosed with belumosudil compared to dosing alone

CC(C)NC(=O)COc1cccc(-c2nc(Nc3ccc4[nH]ncc4c3)c3ccccc3n2)c1 [Belumosudil mesylate, 2-{3-[4-(1H-indazol-5-ylamino)-2-quinazolinyl]phenoxy}-N-(propan-2-yl) acetamide methanesulfonate (1:1)]
solubility in DMF ([1]; DMF): slightly soluble
solubility in DMSO ([1]; DMSO): soluble
solubility in methanol ([1]; methanol): slightly soluble
solubility in water ([1]; water): practically insoluble

NC(=O)COc1cccc(-c2nc(Nc3ccc4[nH]ncc4c3)c3ccccc3n2)c1 [KD025m1]
geometric mean T1/2 (clinical [2]; human, in vivo): 1.6 to 2 h
median Tmax (clinical [2]; human, in vivo): 1.5 to 3 h
AUC(0-last), geometric mean (clinical [2]; human, in vivo, 200 mg): 47.6 ng·h/mL
AUC(0-tau), geometric mean (clinical [2]; human, in vivo, 200 mg): 96.6 ng·h/mL
Cmax, geometric mean (clinical [2]; human, in vivo, 200 mg): 21.4 ng/mL
T1/2, geometric mean (clinical [2]; human, in vivo, 200 mg): 1.621 h
Tmax, median (clinical [2]; human, in vivo, 200 mg): 2.00 h
median Tmax (clinical [3]): 1.5 to 2 h
AUC(0-last), geometric mean (clinical [3]; 200 mg): 32.0 ng·h/mL
Cmax, geometric mean (clinical [3]; 200 mg): 17.1 ng/mL
Tmax, median (clinical [3]; 200 mg): 1.500 h
ROCK2 activity of metabolite (ROCK2): ROCK2 active
exposure of metabolite relative to the parent [4]: < 5%
T1/2, individual participant value(s) ([5]; human, in vivo): 1.878^b h
median Tmax ([5]; human, in vivo): 1.5 to 2 h
AUC(0-last), geometric mean ([5]; human, in vivo, 200 mg): 35.3 ng·h/mL
Cmax, geometric mean ([5]; human, in vivo, 200 mg): 19.5 ng/mL
Tmax, median ([5]; human, in vivo, 200 mg): 1.750 h

O=C(O)COc1cccc(-c2nc(Nc3ccc4[nH]ncc4c3)c3ccccc3n2)c1 [KD025m2]
increase of exposures (Cmax and AUC) following multiple dosing (clinical [2]; human, in vivo): 1.30-1.49 fold
median Tmax (clinical [2]; human, in vivo): 1.5 to 3 h
AUC(0-last), geometric mean (clinical [2]; human, in vivo, 200 mg): 879 ng·h/mL
AUC(0-tau), geometric mean (clinical [2]; human, in vivo, 200 mg): 961 ng·h/mL
Cmax, geometric mean (clinical [2]; human, in vivo, 200 mg): 278 ng/mL
Tmax, median (clinical [2]; human, in vivo, 200 mg): 2.00 h
increase of exposures (Cmax and AUC) following multiple dosing (clinical [3]): 1.21-1.57 fold
median Tmax (clinical [3]): 1.5 to 2 h
AUC(0-last), geometric mean (clinical [3]; 200 mg): 557 ng·h/mL
AUC(0-tau), geometric mean (clinical [3]; 200 mg): 598 ng·h/mL
Cmax, geometric mean (clinical [3]; 200 mg): 215 ng/mL
Tmax, median (clinical [3]; 200 mg): 2.000 h
ROCK2 activity of metabolite (ROCK2): ROCK2 inactive
increase of exposures (Cmax and AUC) following multiple dosing ([5]; human, in vivo): 1.27-1.42 fold
median Tmax ([5]; human, in vivo): 1.5 to 2 h
AUC(0-last), geometric mean ([5]; human, in vivo, 200 mg): 692 ng·h/mL
AUC(0-tau), geometric mean ([5]; human, in vivo, 200 mg): 746 ng·h/mL
Cmax, geometric mean ([5]; human, in vivo, 200 mg): 184 ng/mL
Tmax, median ([5]; human, in vivo, 200 mg): 2.000 h

Cc1nnc(C(=O)NC(C)(C)c2nc(C(=O)NCc3ccc(F)cc3)c(O[C@@H]3O[C@H](C(=O)O)[C@@H](O)[C@H](O)[C@H]3O)c(=O)n2C)o1 [raltegravir glucuronide]
peak and overall exposure levels when raltegravir was dosed with belumosudil compared to dosing alone (clinical [2]; Part 1): notable decrease
MPR Cmax (metabolite to parent ratio) (clinical [2]; Raltegravir + belumosudil (Day 7)): 0.299
AUC(0-24), geometric mean (clinical [2]; [6]): 1090 ng·h/mL
AUC(0-inf), geometric mean (clinical [2]; [6]): 1170 ng·h/mL
AUC(0-last), geometric mean (clinical [2]; [6]): 859 ng·h/mL
Cmax, geometric mean (clinical [2]; [6]): 207 ng/mL
T1/2, geometric mean (clinical [2]; [6]): approximately 3.9 h
Tmax, median (clinical [2]; [6]): 4.000 h
T1/2, geometric mean (clinical [2]; Raltegravir + belumosudil (Day 7), belumosudil 200 mg QD, listed as Raltegravir glucuronide): 3.919 h
MPR Cmax (metabolite to parent ratio) (clinical [2]; Raltegravir alone (Day 1)): 0.506
AUC(0-24), geometric mean (clinical [2]; [7]): 1710 ng·h/mL
AUC(0-inf), geometric mean (clinical [2]; [7]): 1290 ng·h/mL
AUC(0-last), geometric mean (clinical [2]; [7]): 1420 ng·h/mL
Cmax, geometric mean (clinical [2]; [7]): 359 ng/mL
T1/2, geometric mean (clinical [2]; [7]): ~1.5 h
Tmax, median (clinical [2]; [7]): 4.000 h
T1/2, geometric mean (clinical [2]; Raltegravir alone (Day 1), 400 mg single dose, listed as Raltegravir glucuronide): 1.541 h
AUC(0-last), adj geo mean (clinical [2]; [8]): 859 ng·h/mL
Cmax, adj geo mean (clinical [2]; [8]): 207 ng/mL
AUC(0-last), adj geo mean (clinical [2]; [9]): 1420 ng·h/mL
Cmax, adj geo mean (clinical [2]; [9]): 359 ng/mL
AUC(0-last), ratio of adj geo means (test/reference) (clinical [2]; [10]): 60.38%
Cmax, ratio of adj geo means (test/reference) (clinical [2]; [10]): 57.58%

Cc1nnc(C(=O)NC(C)(C)c2nc(C(=O)NCc3ccc(F)cc3)c(O)c(=O)n2C)o1 [raltegravir, reference compound]
Tmax, median (clinical [2]; [6]): 3.000 h
Tmax, median (clinical [2]; [7]): 3.000 h
AUC(0-inf) (clinical [2]; male, human, in vivo, 400 mg): 1510 ng·h/mL
Cmax, adj geo mean (clinical [2]; male, human, in vivo, 400 mg): 512 ng/mL
Cmax, geometric mean (clinical [2]; male, human, in vivo, 400 mg): 520 ng/mL
T1/2, geometric mean (clinical [2]; male, human, in vivo, 400 mg): 1.434 h
half-life (clinical [2]; male, human, in vivo, 400 mg): ~1.4 h
AUC(0-t) (clinical [2]; male, human, in vivo, 400 mg, AUC(0-24), geometric mean): 1970 ng·h/mL
AUC(0-t) (clinical [2]; male, human, in vivo, 400 mg, AUC(0-last), adj geo mean): 1570 ng·h/mL
AUC(0-t) (clinical [2]; male, human, in vivo, 400 mg, AUC(0-last), geometric mean): 1640 ng·h/mL

CC(C)c1nc(N(C)S(C)(=O)=O)nc(-c2ccc(F)cc2)c1/C=C/[C@@H](O)C[C@@H](O)CC(=O)O [rosuvastatin, reference compound]
increase of overall exposure level (clinical [3]; male): 4.62 fold
increase of peak exposure level (clinical [3]; male): 3.59 fold
AUC(0-inf) (clinical [3]; male, 10 mg): 25.4 ng·h/mL
AUC(0-last), geometric mean (clinical [3]; male, 10 mg): 13.6 ng·h/mL
AUC(0-t) (clinical [3]; male, 10 mg): 13.6 ng·h/mL
Cmax, adj geo mean (clinical [3]; male, 10 mg): 2.96 ng/mL
Cmax, geometric mean (clinical [3]; male, 10 mg): 2.96 ng/mL

[H]/N=C(/N)c1ccc(NCc2nc3cc(C(=O)N(CCC(=O)O)c4ccccn4)ccc3n2C)cc1 [unconjugated dabigatran, dabigatran, reference compound]
AUC(0-last), geometric mean [5, 11]: 682 ng·h/mL
Cmax, geometric mean [5, 11]: 99.5 ng/mL
T1/2, geometric mean [5, 11]: 8.293 h
Tmax, median [5, 11]: 2.000 h
AUC(0-last), geometric mean [5, 12]: 317 ng·h/mL
Cmax, geometric mean [5, 12]: 42.1 ng/mL
T1/2, geometric mean [5, 12]: 8.128 h
Tmax, median [5, 12]: 3.000 h
AUC(0-last), adj geo mean [5, 13]: 682 ng·h/mL
Cmax, adj geo mean [5, 13]: 99.5 ng/mL
Cmax, adj geo mean ([5]; Regimen B, dabigatran etexilate 75 mg single dose alone (Day 1)): 42.1 ng/mL
increase of exposure ([5]; coadministration of belumosudil): 2 fold
AUC(0-inf), ratio of adj geo means (test/reference) [5, 14]: 206.47%
AUC(0-last), ratio of adj geo means (test/reference) [5, 14]: 215.41%
Cmax, ratio of adj geo means (test/reference) [5, 14]: 236.06%
increase of overall exposure level [5, 15]: 2.06 fold
increase of peak exposure level [5, 15]: 2.36 fold
AUC(0-inf) ([5]; male, human, plasma, oral, 75 mg, Dabigatran etexilate alone (Day 1), 75 mg single dose, read-out: AUC(0-inf), geometric mean): 371 ng·h/mL
AUC(0-inf) ([5]; male, human, plasma, oral, 75 mg, Regimen B, dabigatran etexilate 75 mg single dose alone (Day 1), read-out: AUC(0-inf), adj geo mean): 398 ng·h/mL
AUC(0-inf) ([5]; male, human, plasma, oral, Dabigatran etexilate + belumosudil (Day 9), belumosudil 200 mg QD, read-out: AUC(0-inf), geometric mean): 801 ng·h/mL
AUC(0-inf) ([5]; male, human, plasma, oral, Regimen B, dabigatran etexilate 75 mg single dose + belumosudil 200 mg QD (Day 9), read-out: AUC(0-inf), adj geo mean): 822 ng·h/mL
AUC(0-t) ([5]; male, human, plasma, oral, Regimen B, dabigatran etexilate 75 mg single dose alone (Day 1), read-out: AUC(0-last), adj geo mean): 317 ng·h/mL
